We go through two compounds from patent EP0386920A2, “2-Hydroxy-3-thienyloxypropylamino derivatives” (IMPERIAL CHEMICAL INDUSTRIES PLC, priority 1989, dated 1990).

The structures appear in SMILES notation.

The subject of test [1] is BAT mitochondria. Put plainly: test (a): GDP binding in brown adipose tissue (BAT) mitochondria of cold-adapted rats as a measure of thermogenic activation. The settings on record: Rattus norvegicus, sc, 1 h, sub-cutaneous (s.c), BAT removed one hour after dosing, relative to isoprenaline 1 mg/kg, read-out: ED₅₀ (dose necessary to produce 50% of the isoprenaline effect on GDP binding). It counts as in vivo.

In test [2] the test system is Rats. The test can be described thus: test (c): metabolic rate (oxygen consumption) in cold-adapted rats. The format is in vivo. To be noted: at 1mgkg⁻¹ p.o., closed-circuit oxygen consumption apparatus.
For test [3], the system named is Rats. The test can be described thus: test (b): heart rate in rats adapted to a thermoneutral environment (D500 dose and selectivity index).

Regarding `COC(=O)COc1ccc(CCNCC(O)COc2ccsc2)cc1` (racemic) [Example 1, Methyl 4-[2-(2-hydroxy-3-(3-thienyloxy)propylamino)ethyl]phenoxyacetate], in test [1], the ED50 worked out at 0.2 mg/kg. In test [2], the “increase in metabolic rate” value is 5.2 ml O₂ min⁻¹Kg ^0.75. Besides, in test [3] (s.c), the “SI (selectivity index, ratio of D₅₀₀ to ED₅₀ in test (a))” value was over 100.

In the case of `CC(C)NCC(O)c1ccc(O)c(O)c1` (stereo not shown) [isoprenaline, reference compound], the “SI (selectivity index, ratio of D₅₀₀ to ED₅₀ in test (a))” value in test [3] (route not stated) worked out at 0.06.
